This passage reports IC50 results from US11548868B2, “Heterocyclic compounds, compositions comprising heterocyclic compound, and methods of use thereof” (JS INNOPHARM (SHANGHAI) LTD, priority 2017, dated 2023).

Assay [1] addresses T1, TDO2 in A172 cancer cells (Homo sapiens, UniProt P48775).
T1 construct: endogenous in cells; host or cells: A172 cancer cells
Nature of the assay: TDO2 Cellular Assay (kynurenine production in A172 cancer cells). It counts as cell-based. The note with it: L-Trp 1 mM, 24 hours incubation, kynurenine at 490 nm. A digest of the protocol:
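Kynurenine output of A172 cells was read colorimetrically at 490 nm (Ehrlich reagent after TCA hydrolysis at 50 °C). Cells had 1 mM L-Trp plus compound at 0–25 μM in 0.25% DMSO for 24 h; IC50 values were fitted non-linearly from percent inhibition relative to vehicle.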

Assay [2] deals with T2, IDO1 in Hela cancer cells (Homo sapiens, UniProt P14902).
T2 construct: endogenous in cells; host or cells: Hela cancer cells stimulated with human IFN-γ
T2 sequence (P14902 whole entry): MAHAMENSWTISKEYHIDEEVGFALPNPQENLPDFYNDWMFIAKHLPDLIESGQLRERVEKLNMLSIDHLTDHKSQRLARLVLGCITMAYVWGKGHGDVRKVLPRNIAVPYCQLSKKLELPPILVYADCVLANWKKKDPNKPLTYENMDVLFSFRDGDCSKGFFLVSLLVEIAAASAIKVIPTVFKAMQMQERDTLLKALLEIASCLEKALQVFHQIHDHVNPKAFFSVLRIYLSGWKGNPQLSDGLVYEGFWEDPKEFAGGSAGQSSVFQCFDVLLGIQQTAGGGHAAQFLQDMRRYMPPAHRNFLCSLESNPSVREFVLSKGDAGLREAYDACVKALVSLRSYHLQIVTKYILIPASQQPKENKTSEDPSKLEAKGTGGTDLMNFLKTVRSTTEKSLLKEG
Nature of the assay: IDO1 Cellular Assay (kynurenine production in IFN-γ stimulated Hela cancer cells). It counts as cell-based. The note with it: human IFN-γ 50 ng/mL, 48 hours incubation, kynurenine at 490 nm. A digest of the protocol: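 HeLa cells stimulated with 50 ng/mL IFN-γ (final) and treated 48 h with compound (0–25 μM final, 0.25% DMSO). Supernatant kynurenine measured after TCA hydrolysis and p-dimethylaminobenzaldehyde reaction at 490 nm; inhibition vs DMSO control, IC50 by non-linear regression.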

Another assay addresses Recombinant human IDO1 (Homo sapiens, UniProt P14902). Nature of the assay: IDO1 Enzymatic Assay. The note with it: recombinant human IDO1 40 nM, L-tryptophan 100 μM, 40 min room temperature, N′-formylkynurenine absorbance 321 nm; read-out: IDO1 biochemical activity*. Here is the method:
(§1) The IDO1 biochemical inhibitory activity is determined by measuring the decrease in N′-formylkynurenine from tryptophan catalyzed by IDO1 enzyme. Recombinant human IDO1 (40 nM), L-tryptophan (100 μM), L-ascorbic acid (20 mM), methylene Blue (20 μM), catalase (0.2 mg/mL), and serial dilutions of the test compounds in a total volume of […] containing DMSO (with final DMSO concentration of 0.5%) and a pH 7.5 buffer containing potassium phosphate (50 mM) were added into each well in a 96-well plate. After incubation at room temperature for 40 min, the absorbance of the reaction mixture was read at 321 nm to measure the formation of N′-formylkynurenine by SpectraMax microplate reader. Percent inhibition of the test compounds was determined by measuring the decrease in N′-formylkynurenine as compared to the control of DMSO vehicle, which was calculated by formula of (WC−WT)/WC, where WC is the mean absorbance of the control well minus blank well; WT is the mean absorbance of the test well minus the blank well. Data was analyzed by GraphPad Prism 5 and the IC50 values were obtained by non-linear regression.
The IC50 values of IDO1 biochemical activity for the examples disclosed herein are listed in Table 2, A: ≤0.1 μM; B: >0.10 μM and ≤0.5 μM; C: >0.5 μM and ≤1.0 μM; and D: >1.0 μM.

The next assay concerns the target Recombinant human TDO2 (Homo sapiens, UniProt P48775). Nature of the assay: TDO2 Enzymatic Assay. In kind it is biochemical. The note with it: recombinant human TDO2 200 nM, L-tryptophan 300 μM, 40 min room temperature, N′-formylkynurenine absorbance 321 nm; read-out: TDO2 bichemical activity*. Here is the method:
as §1, with “TDO2” for “IDO1”, “TDO2 (200” for “IDO1 (40”, “(300” for “(100”, “(WC-WT)/WC,” for “(WC−WT)/WC,”
The IC50 values of TDO2 biochemical activity for the examples disclosed herein are listed in Table 2, A: ≤0.1 μM; B: >0.10 μM and ≤0.5 μM; C: >0.5 μM and ≤1.0 μM; and D: >1.0 μM.

pIC50: −log10 of the molar value.

Sequence of Recombinant human IDO1 (P14902 whole entry): as above
Sequence of Recombinant human TDO2 (P48775 whole entry): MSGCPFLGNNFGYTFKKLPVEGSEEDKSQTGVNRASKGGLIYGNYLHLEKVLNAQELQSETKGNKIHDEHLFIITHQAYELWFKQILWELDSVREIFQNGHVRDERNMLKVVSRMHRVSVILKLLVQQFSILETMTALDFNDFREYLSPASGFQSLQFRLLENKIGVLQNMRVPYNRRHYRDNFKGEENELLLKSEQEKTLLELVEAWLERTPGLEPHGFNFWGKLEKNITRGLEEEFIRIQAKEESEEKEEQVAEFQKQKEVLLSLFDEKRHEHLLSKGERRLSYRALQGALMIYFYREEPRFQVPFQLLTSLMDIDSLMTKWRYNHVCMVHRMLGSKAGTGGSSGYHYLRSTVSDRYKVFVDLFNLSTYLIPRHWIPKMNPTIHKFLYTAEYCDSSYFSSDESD
T1 sequence (P48775 whole entry): as above

Take `CC1(C)C2CN(c3cc(Cl)cc4[nH]ncc34)CC2CN1S(C)(=O)=O` (single isomer, unassigned) [Example 1b]: the pIC50 in assay [1] is ≥ 6.30; in assay [2], < 5.30; on Recombinant human IDO1, 6.30 to 7.00; on Recombinant human TDO2, ≥ 7.00.

Regarding `CS(=O)(=O)N1C[C@@H]2C[C@@](O)(c3cc(Cl)cc4[nH]ncc34)C[C@@H]2C1` [Example 2, (3aR,5r,6aS)-5-(6-chloro-1H-indazol-4-yl)-2-(methylsulfonyl)octahydrocyclopenta[c]pyrrol-5-ol], the pIC50 is ≥ 6.30 in assay [1], 6.00 to 6.30 in assay [2], 6.30 to 7.00 at Recombinant human IDO1 and ≥ 7.00 at Recombinant human TDO2.

For the compound `CC(=O)N1C[C@@H]2C[C@@](O)(c3cc(Cl)cc4[nH]ncc34)C[C@@H]2C1` [Example 22, 1-((3aR,5r,6aS)-5-(6-chloro-1H-indazol-4-yl)-5-hydroxyhexahydrocyclopenta[c]pyrrol-2(1H)-yl)ethanone], the pIC50 in assay [1] is ≥ 6.30; in assay [2], < 5.30; on Recombinant human IDO1, < 6.00; at Recombinant human TDO2 it was ≥ 7.00.

For `O[C@@]1(c2cc(Cl)cc3[nH]ncc23)C[C@H]2C[C@H]2C1` [Example 25, (1R,3r,5S)-3-(6-chloro-1H-indazol-4-yl)bicyclo[3.1.0]hexan-3-ol], the pIC50 was ≥ 6.30 in assay [1], 5.30 to 6.00 in assay [2], 6.00 to 6.30 on Recombinant human IDO1 and ≥ 7.00 at Recombinant human TDO2.
